Measurements taken from ChEMBL document CHEMBL5108024, “New C-6 functionalized quinoline NorA inhibitors strongly synergize with ciprofloxacin against planktonic and biofilm growing resistant Staphylococcus aureus strains” (Eur J Med Chem, 2022).
Where “and” joins values, the source holds several entries; their conditions need not be identical. Equal entries are not always repeated.

Legend:
Staphylococcus aureus [1] = assay: Inhibition of EtBr efflux in ciprofloxacin-resistant Staphylococcus aureus 1199B overexpressing norA and harboring A116E grlA mutant assessed as reduction in fluorescence intensity at 50 uM measured for 5 mins by microplate reader analysis relative to control; type: functional
Staphylococcus aureus [2] = assay: Synergistic antibacterial activity against Staphylococcus aureus 1199B overexpressing norA and harboring A116E grlA mutant assessed as sixteen fold minimum potentiating concentration incubated in presence of ciprofloxacin by checkerboard assay; type: functional
Staphylococcus aureus [3] = assay: Inhibition of EtBr efflux in ciprofloxacin-resistant Staphylococcus aureus 1199B overexpressing norA and harboring A116E grlA mutant assessed as reduction in fluorescence intensity at 10 uM measured for 5 mins by microplate reader analysis relative to control; type: functional
Staphylococcus aureus [4] = assay: Antibacterial activity against ciprofloxacin-susceptible wild type Staphylococcus aureus 1199 assessed as inhibition of bacterial growth by broth microdilution method; type: functional
Staphylococcus aureus [5] = assay: Synergistic antibacterial activity against Staphylococcus aureus 1199B overexpressing norA and harboring A116E grlA mutant assessed as four fold minimum potentiating concentration incubated in presence of ciprofloxacin by checkerboard assay; type: functional
Staphylococcus aureus [6] = assay: Antibacterial activity against ciprofloxacin-resistant Staphylococcus aureus 1199B overexpressing norA and harboring A116E grlA mutant assessed as inhibition of bacterial growth by broth microdilution method; type: functional
Staphylococcus aureus [7] = assay: Synergistic antibacterial activity against wild type Staphylococcus aureus 1199 assessed as fold reduction in ciprofloxacin MIC at >=3.13 ug/ml by checkerboard assay; type: functional; conditions: dose >= 3.13 µg/ml
Staphylococcus aureus [8] = assay: Synergistic antibacterial activity against ciprofloxacin-resistant Staphylococcus aureus 1199B overexpressing norA and harboring A116E grlA mutant assessed as fold reduction in ciprofloxacin MIC at 6.25 uM by broth microdilution method; type: functional
Staphylococcus aureus [9] = assay: Synergistic antibiofilm activity against wild type Staphylococcus aureus 1199 assessed as biofilm eradication by measuring ciprofloxacin MBEC at 3.13 ug/ml incubated for 24 hrs by Calgary biofilm device assay; type: functional; conditions: dose 3.13 µg/ml
[10] = Cytotoxicity against human THP-1 cells assessed as cell viability at 12.5 ug/ml incubated for 24 hrs by MTT assay relative to control; type: toxicity, cell-based; conditions: at 12.5 µg/mL, read-out: Activity
Staphylococcus aureus [11] = assay: Antibacterial activity against norA deleted Staphylococcus aureus K1902 assessed as inhibition of bacterial growth by broth microdilution method; type: functional
[12] = Cytotoxicity against human THP-1 cells assessed as cell viability incubated for 24 hrs by MTT assay; type: toxicity, cell-based
Staphylococcus aureus [13] = assay: Synergistic antibiofilm activity against Staphylococcus aureus 1199B overexpressing norA and harboring A116E grlA mutant assessed as biofilm eradication by measuring fold reduction in ciprofloxacin MBEC at 3.13 ug/ml incubated for 24 hrs by Calgary biofilm device assay; type: functional; conditions: dose 3.13 µg/ml
[14] = Cytotoxicity against human A549 cells assessed as cell viability at 12.5 ug/ml incubated for 24 hrs by MTT assay relative to control; type: toxicity, cell-based; conditions: at 12.5 µg/mL, read-out: Activity
Staphylococcus aureus [15] = assay: Synergistic antibiofilm activity against wild type Staphylococcus aureus 1199 assessed as biofilm eradication by measuring fold reduction in ciprofloxacin MBEC at 3.13 ug/ml incubated for 24 hrs by Calgary biofilm device assay; type: functional; conditions: dose 3.13 µg/ml
Staphylococcus aureus [16] = assay: Synergistic antibiofilm activity against Staphylococcus aureus 1199B overexpressing norA and harboring A116E grlA mutant assessed as biofilm eradication by measuring ciprofloxacin MBEC at 3.13 ug/ml incubated for 24 hrs by Calgary biofilm device assay; type: functional; conditions: dose 3.13 µg/ml
[17] = Cytotoxicity against human A549 cells assessed as cell viability at 3.13 ug/ml incubated for 24 hrs by MTT assay relative to control; type: toxicity, cell-based; conditions: at 3.13 µg/mL, read-out: Activity
Staphylococcus aureus [18] = assay: Synergistic antibacterial activity against Staphylococcus aureus K2378 overexpressing norA assessed as fold reduction in ciprofloxacin MIC at 0.2 to 12.5 ug/ml by checkerboard assay; type: functional; conditions: dose 0.2-12.5 µg/ml
Staphylococcus aureus [19] = assay: Synergistic antibacterial activity against Staphylococcus aureus 1199B overexpressing norA and harboring A116E grlA mutant assessed as eight fold minimum potentiating concentration incubated in presence of ciprofloxacin by checkerboard assay; type: functional
[20] = Cytotoxicity against human THP-1 cells assessed as cell viability at 3.13 ug/ml incubated for 24 hrs by MTT assay relative to control; type: toxicity, cell-based; conditions: at 3.13 µg/mL, read-out: Activity
Staphylococcus aureus [21] = assay: Antibacterial activity against Staphylococcus aureus K2378 harbouring norA promoting and coding region assessed as inhibition of bacterial growth by broth microdilution method; type: functional

With `CCCOc1ccc(-c2cc(OCCN3CCCCCC3)c3cc(OC(C)C)ccc3n2)cc1` as the compound, how does the inhibition (Staphylococcus aureus [1]) read?
Its inhibition is 75.3%.

Which inhibition (Staphylococcus aureus [1]) does the source give for `CCCOc1ccc(-c2cc(OCCN(CC)CC)c3cc(SC)ccc3n2)cc1` here?
Its inhibition is 53.3%.

Which inhibition (Staphylococcus aureus [1]) does the source give for `CCCOc1ccc(-c2cc(OCCN3CCCCC3)c3cc(OC(C)C)ccc3n2)cc1` here?
Its inhibition is 65.3%.

For `CCCOc1ccc(-c2cc(OCCN3CCCCC3)c3cc(Nc4ccccc4)ccc3n2)cc1`, which MPC (Staphylococcus aureus [2]) is on record?
Its MPC is 0.78 µg/mL.

And the inhibition (Staphylococcus aureus [1])?
The inhibition was 84.2%.

And the inhibition (Staphylococcus aureus [3])?
The inhibition was 50.1%.

What about the MIC (Staphylococcus aureus [4]) of the same compound?
Its MIC is > 50 µg/mL.

And the MPC (Staphylococcus aureus [5])?
Its MPC is 0.39 µg/mL.

And the MIC (Staphylococcus aureus [6])?
The MIC was > 50 µg/mL and > 519 µM.

What about the “fold change (FC)” value (Staphylococcus aureus [7]) of the same compound?
Its value is 4.

What about the “fold change (FC)” value (Staphylococcus aureus [8]) of the same compound?
Its value is 8.

With `CCCOc1ccc(-c2cc(OCCN(CC)CC)c3cc(C#N)ccc3n2)cc1` as the compound, how does the inhibition (Staphylococcus aureus [1]) read?
Its inhibition is 77.8%.

With `CCCOc1ccc(-c2cc(OCCN(CC)CC)c3cc(C(F)(F)F)ccc3n2)cc1` as the compound, how does the inhibition (Staphylococcus aureus [1]) read?
The inhibition was 73.5%.

What does the source list for `CCCOc1ccc(-c2cc(OCCN3CCCCC3)c3cc(OC(F)(F)F)ccc3n2)cc1`?
inhibition (Staphylococcus aureus [1]): 81.2%; inhibition (Staphylococcus aureus [3]): 86.9%; MIC (Staphylococcus aureus [6]): > 529 µM

Which inhibition (Staphylococcus aureus [1]) does the source give for `CCCOc1ccc(-c2cc(OCCN3CCCCC3)c3cc(-c4ccccc4)ccc3n2)cc1` here?
Its inhibition is 80.6%.

What about the inhibition (Staphylococcus aureus [3]) of the same compound?
The inhibition was 41.9%.

For `CCCOc1ccc(-c2cc(OCCN(CC)CC)c3cc(OC(C)C)ccc3n2)cc1`, which inhibition (Staphylococcus aureus [1]) is on record?
The inhibition was 43.7%.

Which results are given for `CCCOc1ccc(-c2cc(OCCN3CCCCCC3)c3cc(C(F)(F)F)ccc3n2)cc1`?
MBEC (Staphylococcus aureus [9]): 0.07 µg/mL; inhibition (Staphylococcus aureus [1]): 85.7%; viability at 24 h, 12.5 ug/ml [10]: 27%; MIC (Staphylococcus aureus [11]): > 50 µg/mL; CC50 at 24 h [12]: > 3.13 µg/mL; inhibition (Staphylococcus aureus [3]): 65.6%; MIC (Staphylococcus aureus [4]): > 50 µg/mL; fold change (FC) (Staphylococcus aureus [13]): 512; viability at 24 h, 12.5 ug/ml [14]: 77.1%; fold change (FC) (Staphylococcus aureus [15]): 286; MBEC (Staphylococcus aureus [16]): 0.63 µg/mL; viability at 24 h, 3.13 ug/ml [17]: 100%; fold change (FC) (Staphylococcus aureus [18]): 4; MPC (Staphylococcus aureus [19]): 1.56 µg/mL; viability at 24 h, 3.13 ug/ml [20]: 65.4%; MIC (Staphylococcus aureus [6]): > 50 µg/mL and > 529 µM; MIC (Staphylococcus aureus [21]): > 50 µg/mL; fold change (FC) (Staphylococcus aureus [8]): >=8

Which inhibition (Staphylococcus aureus [1]) does the source give for `CCCOc1ccc(-c2cc(OCCN(CC)CC)c3cc(Br)ccc3n2)cc1` here?
Its inhibition is 63.4%.

Which inhibition (Staphylococcus aureus [1]) does the source give for `CCCOc1ccc(-c2cc(OCCN3CCCCC3)c3cc(C#N)ccc3n2)cc1` here?
Its inhibition is 77.8%.

Which results are given for `CCCOc1ccc(-c2cc(OCCN3CCCCCC3)c3cc(C#N)ccc3n2)cc1`?
inhibition (Staphylococcus aureus [1]): 84.2%; inhibition (Staphylococcus aureus [3]): 86.8%; MIC (Staphylococcus aureus [6]): > 582 µM

Which inhibition (Staphylococcus aureus [1]) does the source give for `CCCOc1ccc(-c2cc(OCCN3CCCCC3)c3cc(NCc4ccccc4)ccc3n2)cc1` here?
The inhibition was 40.6%.
